{
  "source": "patent US20180178031A1",
  "about": "“DENTAL DEVICE AND PHOTODYNAMIC THERAPEUTIC SYSTEM USING SAME” (priority 2016, published 2018)",
  "key": {"[1]": {"test_system": "gram positive (G (+)) bacteria (Streptococcus mutans, Streptococcus sobrinus)", "test": "photodynamic therapy bacterial disinfection assay in vitro, G (+) bacteria", "format": "cell-based", "details": "photosensitizer plus infrared laser ray 808 nanometers, irradiating about 5 minutes, in vitro (FIG. 8)", "excerpt": "(§1) One group assay represents the different bacterial disinfection by using the photodynamic therapy method in vitro with a specific irradiated wavelength of the light, and the other group assay represents the different bacterial disinfection by using the photodynamic therapy method in vitro with a specific compound X and the specific irradiated wavelength of the light. […] The light is infrared laser ray. The specific irradiated wavelength of the infrared laser ray of is 808 nanometers. The specific compound X is a photosensitizer. The photosensitizer is the indocyanine green dye. The period of irradiating the bacteria is about 5 minutes. The bacteria include gram positive (G (+)) bacteria and gram negative (G (−)) bacteria. The G (+) bacteria include a Streptococcus mutans (S. mutans) and a Streptococcus sobrinus (S. sobrinus). The G (−) bacteria include an Aggregatibacter actinomycetemcomitans (A. actinomycetemcomitans), a Fusobacterium nucleatum (F. nucleatum), and a Porphyromonas gingivalis (P. gingivalis)."}, "[2]": {"test_system": "gram negative (G (−)) bacteria (Aggregatibacter actinomycetemcomitans, Fusobacterium nucleatum, Porphyromonas gingivalis)", "test": "photodynamic therapy bacterial disinfection assay in vitro, G (−) bacteria", "format": "cell-based", "details": "photosensitizer plus infrared laser ray 808 nanometers, irradiating about 5 minutes, in vitro (FIG. 8)", "excerpt": "as §1"}},
  "data": [
    {"smiles": "CC1(C)C(/C=C/C=C/C=C/C=C2\\N(CCCCS(=O)(=O)O)c3ccc4ccccc4c3C2(C)C)=[N+](CCCCS(=O)(=O)[O-])c2ccc3ccccc3c21", "note": "[compound X, indocyanine green]", "values": [
      {"measurement": "percentage growth rate of the bacteria", "setting": "[1]", "result": "zero"},
      {"measurement": "percentage growth rate of the bacteria", "setting": "[2]", "result": "less than 20%"}
    ]}
  ]
}
